Laboratory results from publication PMC5809414, “Physician-initiated clinical study of limb ulcers treated with a functional peptide, SR-0379: from discovery to a randomized, double-blind, placebo-controlled trial” (NPJ Aging and Mechanisms of Disease, 2018).
Where a SMILES comes first, the peptide text is derived from it. [ ]: non-standard residue; d: D form.

Assays:
[1] = Safety evaluation (adverse events) in the clinical study; type: in vivo, human
Method: The primary outcome was the rate of wound size reduction at 4 weeks after the first treatment compared with pre-treatment wound size. Additionally, the following secondary endpoints were measured at 4 weeks after the first treatment and compared with pre-treatment status: time to wound closure; 50% wound size reduction ratio; quantification of Pseudomonas aeruginosa, Staphylococcus aureus, MRSA, and Streptococcus pyogenes; and overall evaluated ulcer improvement. Ulcer size was quantified based on skin ulcer pictures according to a defined procedure using ImageJ software and calculated as the percent change. We also used the DESIGN-R score index, which is calculated based on six components (exudate, size, infection/inflammation, granulation tissue, necrotic tissue, and pocket size), as a tool to score pressure ulcer severity.[23] Depth was excluded from the calculation. The total score was calculated by weighting the score of each item; a high score indicates greater severity. The safety of SR-0379 was evaluated during the treatment period (28 days) every 7 days and post-treatment (7 days) according to the Common Terminology Criteria for Adverse Events (version 4.0).

healthy men = tested on: healthy men; design: species or system human; settings: in vivo
Method: A closed patch test was performed with SR-0379 at Shinanozaka Clinic (Shinjuku, Tokyo, Japan); the study protocol was approved by the Shinanozaka Clinic institutional review board. The registry number is UMIN000015391, and the URL is https://upload.umin.ac.jp/cgi-open-bin/ctr_e/ctr_view.cgi?recptno=R000017479. Sixty-six men were screened after obtaining informed consent, and a total of 20 healthy men were enrolled for the patch test after obtaining informed consent between October and November 2014. The inclusion criteria for healthy men were: (1) adult age (≧20 years and ≦40 years); (2) body mass index (≧18.5 and <25.0 kg/m^2); and (3) systolic blood pressure (SBP, ≦140 mmHg) and diastolic blood pressure (DBP, ≦90 mmHg); additionally, patients were to be within normal limits in an ECG test. The exclusion criteria were drug allergy or a history thereof, atopic dermatitis or allergic contact dermatitis, skin with dermatitis or inflammation, organ failure (heart, liver, kidney, blood), and others. The closed patch test was performed with a Finn chamber (7 mm) using filter paper containing 0.015 mL of SR-0379 solution (0%, 0.02%, 0.1%, 0.25%, or 0.5%). The allocation was generated by a coordinator and masked for the evaluator. […] Results were evaluated at 1 and 24 h after removal and graded according to the International Contact Dermatitis Research Group criteria (grades 1–6). […]

infected wound = settings: rat infected wound model, compared with FGF2; cited from earlier work
[2] = tested on: endothelial cell and fibroblast; settings: in vitro; cited from earlier work
From the text: SR-0379 also promoted angiogenesis, granulation tissue formation, and endothelial cell and fibroblast proliferation in vitro. In this study, we conducted a multi-center, double-blinded, randomized phase I/IIa clinical study to evaluate the safety, efficacy, and pharmacokinetics of SR-0379 for the treatment of leg ulcers.

## CC[C@H](C)[C@H](NC(=O)[C@H](CC(C)C)NC(=O)[C@H](CCCCN)NC(=O)[C@H](CC(C)C)NC(=O)[C@@H](N)CCSC)C(=O)N[C@@H](Cc1ccccc1)C(=O)N[C@@H](CC(C)C)C(=O)N[C@@H](Cc1c[nH]cn1)C(=O)N[C@@H](CCCNC(=N)N)C(=O)N[C@@H](CC(C)C)C(=O)N[C@@H](CCCCN)C(=O)N[C@@H](CCCNC(=N)N)C(=O)N[C@@H](CCSC)C(=O)N[C@@H](CCCNC(=N)N)C(=O)N[C@@H](CCCCN)C(=O)N[C@@H](CCCNC(=N)N)C(=O)N[C@@H](CC(C)C)C(=O)N[C@H](CCCCN)C(=O)N[C@@H](CCCNC(=N)N)C(=O)N[C@@H](CCCCN)C(=O)O [SR-0379] (H-MLKLIFLHRLKRMRKRL[dK]RK-OH; N-terminus and C-terminus assumed)
[1]; 0.5% SR-0379, person, pneumonia
  Adverse event: Outcome: Death
[1]; human, in vivo
  Adverse event: Causality: No
  local adverse events such as itching, rash, or pain during treatment: no local adverse events
  relation of all adverse events to SR-0379 treatment: unrelated
Healthy men
  skin irritation index scores, assessment: within permitted levels for clinical usage
  vital signs and electrocardiogram (ECG): no abnormal findings
Infected wound
  wound healing effect: higher than that of fibroblast growth factor 2 (FGF2)
[2]
  angiogenesis, granulation tissue formation, and endothelial cell and fibroblast proliferation: promoted
